Test [1] concerns Vibrio parahaemolyticus 2013V-1174. It is filed as cell-based. As to conditions: 2 h.
For test [2] the test system is unchanged. It is filed as cell-based. As to conditions: 2 h, pH 7.2. Here is the method:
(§1) The antimicrobial activity of the peptides was determined against Gram-negative bacteria, including V. alginolyticus (A056), E. coli (DH5α), and V. parahaemolyticus (2013V-1174), which were obtained from the South China Sea Institute of Oceanology, Chinese Academy of Sciences. The activity was also tested against the Gram-positive bacteria S. aureus ATCC 25923 and B. subtilis ATCC 6051. To assess the antimicrobial activities of the peptides, bacterial cells were cultured to the logarithmic growth phase and then diluted to 10^6–1.5 × 10^7 CFU/mL with PBS (0.01 M, pH 7.2). Equal volumes of serially diluted peptides, with concentrations ranging from 30 to 450 μM in PBS, and bacteria suspension were mixed and incubated at room temperature for 2 h, respectively. Then, 6 μL of each serially diluted mixture was plated on sterile 12-well agar plates, followed by incubation for 11 to 12 h, and the colonies were assessed to determine the MICs and MBCs. The MICs were expressed (in µM) as an [a]–[b] concentration interval, where [a] is the highest peptide concentration at which bacteria were growing and [b] is the lowest concentration that caused 100% growth inhibition. Cultures without peptides were employed as controls. All the tests were performed in triplicate and repeated three times.

For test [3], the system named is Vibrio alginolyticus (A056). Format: cell-based. The following applies: 2 h, pH 7.2. The protocol:
as §1

The next test relates to Escherichia coli (DH5α). Format: cell-based. As to conditions: DH5α, 2 h, pH 7.2. The protocol:
as §1

Test [4] concerns Staphylococcus aureus ATCC 25923. Format: cell-based. The following applies: ATCC 25923, 2 h, pH 7.2. The protocol: as §1
For test [5], the system named is Bacillus subtilis ATCC 6051. Format: cell-based. As to conditions: ATCC 6051, 2 h, pH 7.2. The protocol:
as §1

Test [6] relates to Vibrio alginolyticus (A056). Format: cell-based. The following applies: 2 h.
A further test has as its system Bacillus megaterium. As to conditions: cited from earlier work.
The test system of a further test is Staphylococcus aureus. The following applies: cited from earlier work.
For a further test, the system named is E. coli. The following applies: cited from earlier work. The protocol: In order to explore the antibacterial activity of the six predicted AMPs, the minimal inhibitory concentrations (MICs) and the minimal bactericidal concentrations (MBCs) of chemically synthesized NpHN1–NpHN6 peptides were measured against Gram-negative bacteria (Vibrio alginolyticus and Escherichia coli). […] The GR ...

Converted amounts (≈) assume the structure as drawn. Where a SMILES comes first, the peptide text is derived from it.

As a reminder, the IC50 is the concentration that inhibits the measured activity by half. A lower IC50 goes with higher potency. In general, MBC refers to the lowest tested concentration that kills the bacteria rather than only halting them. One may read the MIC as the lowest concentration that inhibits growth of the organism. Higher therefore signals weaker potency. In the case of `CC[C@H](C)[C@H](NC(=O)CNC(=O)[C@H](Cc1c[nH]cn1)NC(=O)[C@H](CCCNC(=N)N)NC(=O)[C@H](CC(C)C)NC(=O)[C@H](Cc1ccccc1)NC(=O)CNC(=O)[C@H](C)NC(=O)[C@H](Cc1ccccc1)NC(=O)[C@@H](NC(=O)[C@@H](N)CCCNC(=N)N)C(C)C)C(=O)N[C@@H](CCCCN)C(=O)N[C@@H](CCCNC(=N)N)C(=O)N[C@@H](CO)C(=O)N[C@@H](CCCNC(=N)N)C(=O)O` [NpHM4] (H-RVFAGFLRHGIKRSR-OH), the IC50 in [1] was found to be 32.1 µM; in [6], 12.2 µM. For the same compound, the MBC in test [2] is 50 µM (≈ 90 µg/mL); in [3], 30 µM (≈ 54 µg/mL); with Escherichia coli (DH5α) it was over 150 µM; in [4], over 50 µM; in test [5], over 50 µM. For the same compound, the MIC in [2] was 15 to 45 µM; in [3], 5 to 25 µM; against Escherichia coli (DH5α) it was 50 to 150 µM; in test [4], over 50 µM; in test [5], over 50 µM.
As to `CC[C@H](C)[C@H](NC(=O)CNC(=O)[C@H](Cc1c[nH]cn1)NC(=O)[C@H](CCCNC(=N)N)NC(=O)[C@H](CC(C)C)NC(=O)[C@H](Cc1ccccc1)NC(=O)CNC(=O)[C@H](C)NC(=O)[C@H](CCCNC(=N)N)NC(=O)[C@@H](NC(=O)[C@@H](N)CCCNC(=N)N)C(C)C)C(=O)N[C@@H](CCCCN)C(=O)N[C@@H](CCCNC(=N)N)C(=O)N[C@@H](CO)C(=O)N[C@@H](CCCNC(=N)N)C(=O)O` [NpHM7] (H-RVRAGFLRHGIKRSR-OH), the MBC (in [2]; in [3]; in the test on Escherichia coli (DH5α); in [4]; in test [5]) was over 150 µM throughout. The MIC (in [2]; in test [3]; against Escherichia coli (DH5α); in test [4]; in test [5]) was over 150 µM throughout.
Consider GSTSFHLIYNKWFAVKRRRKR [GR21], for which the MBC result in the test on Bacillus megaterium, in the test with Staphylococcus aureus and in the test on E. coli was “below 25 μM” throughout.

The values above are taken from paper PMC9317327, “Functional Characterization, Antimicrobial Effects, and Potential Antibacterial Mechanisms of NpHM4, a Derived Peptide of Nautilus pompilius Hemocyanin” (Marine Drugs, 2022).
